Common to all, as to experiment: relative viability (nuclei count vs DMSO), 5 days (fraction); higher = more cells survive
Compound in the experiment “Lapatinib + Linsitinib”: CS(=O)(=O)CCNCc1ccc(-c2ccc3ncnc(Nc4ccc(OCc5cccc(F)c5)c(Cl)c4)c3c2)o1 [Lapatinib] + C[C@]1(O)C[C@@H](c2nc(-c3ccc4ccc(-c5ccccc5)nc4c3)c3c(N)nccn32)C1 [Linsitinib] (partner 1 µM)
In outline: (§1)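 Five library-drug doses in √10 steps were combined with a fixed anchor-drug dose, or a single drug was given alone, by pin tool to lung cancer cell lines in 1536-well plates the day after seeding. Nuclei were stained and counted after 5 days. Relative viability is the nuclei count in treated wells over that in vehicle wells, taken as the median of duplicate plates.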

Compound in the experiment “Lapatinib + Palbociclib”: CS(=O)(=O)CCNCc1ccc(-c2ccc3ncnc(Nc4ccc(OCc5cccc(F)c5)c(Cl)c4)c3c2)o1 [Lapatinib] + CC(=O)c1c(C)c2cnc(Nc3ccc(N4CCNCC4)cn3)nc2n(C2CCCC2)c1=O [Palbociclib] (partner 0.5 µM)
In outline:
as §1

Compound in the experiment “Wnt-C59 + AZD7762”: CC1=NC=CC(=C1)C2=CC=C(C=C2)CC(=O)NC3=CC=C(C=C3)C4=CN=CC=C4 [Wnt-C59] + NC(=O)Nc1cc(-c2cccc(F)c2)sc1C(=O)N[C@H]1CCCNC1 [AZD7762] (partner 0.2 µM)
Summed up:
as §1

Compound in the experiment “Wnt-C59 + Trametinib”: CC1=NC=CC(=C1)C2=CC=C(C=C2)CC(=O)NC3=CC=C(C=C3)C4=CN=CC=C4 [Wnt-C59] + CC(=O)Nc1cccc(-n2c(=O)n(C3CC3)c(=O)c3c(Nc4ccc(I)cc4F)n(C)c(=O)c(C)c32)c1 [Trametinib] (partner 0.02 µM)
Summed up:
as §1

For H3255, the relative viability with Lapatinib + Linsitinib (first compound 0.02 µM) turned out to be 0.92; in the experiment with Lapatinib + Linsitinib (first compound 0.06325 µM) it was 0.767; in the experiment with Lapatinib + Linsitinib (first compound 0.2 µM) it was 0.783; in the experiment with Lapatinib + Linsitinib (first compound 0.6325 µM), 0.693; with Lapatinib + Linsitinib (first compound 2 µM) it was 0.196; in the experiment with Lapatinib + Palbociclib (first compound 0.02 µM), 0.334. Moreover, the relative viability with Lapatinib + Palbociclib (first compound 0.06325 µM) worked out at 0.291; in the experiment with Lapatinib + Palbociclib (first compound 0.2 µM) it was 0.308; with Lapatinib + Palbociclib (first compound 0.6325 µM), 0.291; with Lapatinib + Palbociclib (first compound 2 µM), 0.283; with Wnt-C59 + AZD7762 (first compound 0.001 µM) it was 0.927; in the experiment with Wnt-C59 + AZD7762 (first compound 0.01 µM) it was 0.922. For the same cell line, the relative viability is 0.953 in the experiment with Wnt-C59 + AZD7762 (first compound 0.03162 µM); 0.828 in the experiment with Wnt-C59 + AZD7762 (first compound 0.1 µM); 0.664 with Wnt-C59 + Trametinib (first compound 0.001 µM); 0.495 in the experiment with Wnt-C59 + Trametinib (first compound 0.01 µM); 0.683 with Wnt-C59 + Trametinib (first compound 0.03162 µM); 0.506 in the experiment with Wnt-C59 + Trametinib (first compound 0.1 µM).
As for HOP-62, the relative viability with Lapatinib + Linsitinib (first compound 0.06325 µM) is 0.923; with Lapatinib + Linsitinib (first compound 0.2 µM) it was 0.91; with Lapatinib + Linsitinib (first compound 0.6325 µM), 0.857; with Lapatinib + Linsitinib (first compound 2 µM), 1.01; with Lapatinib + Palbociclib (first compound 0.06325 µM) it was 0.44; with Lapatinib + Palbociclib (first compound 0.2 µM), 0.457. Further, the relative viability in the experiment with Lapatinib + Palbociclib (first compound 0.6325 µM) is 0.451; with Lapatinib + Palbociclib (first compound 2 µM), 0.432; with Wnt-C59 + AZD7762 (first compound 0.001 µM), 0.403; with Wnt-C59 + AZD7762 (first compound 0.01 µM), 0.598; with Wnt-C59 + AZD7762 (first compound 0.03162 µM), 0.769; with Wnt-C59 + AZD7762 (first compound 0.1 µM), 0.478. Also, the relative viability with Wnt-C59 + Trametinib (first compound 0.001 µM) amounted to 0.347; with Wnt-C59 + Trametinib (first compound 0.01 µM), 0.366; with Wnt-C59 + Trametinib (first compound 0.03162 µM), 0.352; in the experiment with Wnt-C59 + Trametinib (first compound 0.1 µM), 0.347.
In the case of LK-2, the relative viability with Lapatinib + Linsitinib (first compound 0.02 µM) came out at 0.704; with Lapatinib + Linsitinib (first compound 0.06325 µM), 0.487; with Lapatinib + Linsitinib (first compound 0.2 µM), 0.377; in the experiment with Lapatinib + Linsitinib (first compound 0.6325 µM), 0.66; in the experiment with Lapatinib + Linsitinib (first compound 2 µM), 0.575; with Lapatinib + Palbociclib (first compound 0.02 µM), 0.634. Further, the relative viability with Lapatinib + Palbociclib (first compound 0.2 µM) came out at 0.832; in the experiment with Lapatinib + Palbociclib (first compound 2 µM), 1.01; with Wnt-C59 + AZD7762 (first compound 0.001 µM), 0.417; with Wnt-C59 + AZD7762 (first compound 0.01 µM) it was 0.407; with Wnt-C59 + AZD7762 (first compound 0.03162 µM), 0.486; with Wnt-C59 + AZD7762 (first compound 0.1 µM), 0.461. Moreover, the relative viability in the experiment with Wnt-C59 + Trametinib (first compound 0.001 µM) amounted to 0.767; with Wnt-C59 + Trametinib (first compound 0.01 µM) it was 0.869; in the experiment with Wnt-C59 + Trametinib (first compound 0.03162 µM), 0.713; with Wnt-C59 + Trametinib (first compound 0.1 µM), 0.817.
As to NCI-H441, the relative viability with Lapatinib + Linsitinib (first compound 0.02 µM) is 0.377; with Lapatinib + Linsitinib (first compound 0.06325 µM), 0.659; with Lapatinib + Linsitinib (first compound 0.2 µM) it was 0.494; with Lapatinib + Linsitinib (first compound 0.6325 µM), 0.457; in the experiment with Lapatinib + Linsitinib (first compound 2 µM) it was 0.593; with Lapatinib + Palbociclib (first compound 0.02 µM) it was 0.222. For the same cell line, the relative viability with Lapatinib + Palbociclib (first compound 0.2 µM) is 0.176; in the experiment with Lapatinib + Palbociclib (first compound 0.6325 µM), 0.236; with Lapatinib + Palbociclib (first compound 2 µM) it was 0.185; with Wnt-C59 + AZD7762 (first compound 0.001 µM), 1.19; with Wnt-C59 + AZD7762 (first compound 0.01 µM), 1.35; in the experiment with Wnt-C59 + AZD7762 (first compound 0.03162 µM), 1.48. The relative viability with Wnt-C59 + AZD7762 (first compound 0.1 µM) came to 0.997; with Wnt-C59 + Trametinib (first compound 0.001 µM), 0.474; with Wnt-C59 + Trametinib (first compound 0.01 µM) it was 0.451; with Wnt-C59 + Trametinib (first compound 0.03162 µM), 0.465; in the experiment with Wnt-C59 + Trametinib (first compound 0.1 µM), 0.434.
Turning to PC-14, the relative viability is 0.86 in the experiment with Lapatinib + Linsitinib (first compound 0.02 µM); 0.929 in the experiment with Lapatinib + Linsitinib (first compound 0.06325 µM); 0.885 with Lapatinib + Linsitinib (first compound 0.2 µM); 0.904 with Lapatinib + Linsitinib (first compound 0.6325 µM); 0.644 with Lapatinib + Linsitinib (first compound 2 µM); 0.497 in the experiment with Lapatinib + Palbociclib (first compound 0.02 µM). Moreover, the relative viability with Lapatinib + Palbociclib (first compound 0.06325 µM) was determined as 0.526; in the experiment with Lapatinib + Palbociclib (first compound 0.2 µM) it was 0.451; with Lapatinib + Palbociclib (first compound 0.6325 µM), 0.373; with Lapatinib + Palbociclib (first compound 2 µM), 0.0812; with Wnt-C59 + AZD7762 (first compound 0.001 µM), 0.414; with Wnt-C59 + AZD7762 (first compound 0.01 µM) it was 0.367. Besides, the relative viability with Wnt-C59 + AZD7762 (first compound 0.03162 µM) stood at 0.351; with Wnt-C59 + AZD7762 (first compound 0.1 µM) it was 0.457; with Wnt-C59 + Trametinib (first compound 0.001 µM), 0.97; in the experiment with Wnt-C59 + Trametinib (first compound 0.01 µM), 0.911; with Wnt-C59 + Trametinib (first compound 0.03162 µM) it was 0.9; in the experiment with Wnt-C59 + Trametinib (first compound 0.1 µM), 0.729.

Source of the values: the supplement of paper PMC10307832.
